ChEMBL document CHEMBL3400090, “Benzofused hydroxamic acids: useful fragments for the preparation of histone deacetylase inhibitors. Part 2: 7-fluorobenzothiophenes and benzofurans” (Bioorg Med Chem Lett, 2015)

Experiments:
[1] = target: T1, Histone deacetylase (Rattus norvegicus) (UniProt Q6P6W3+Q99P99+Q99P96+Q4QQW4+Q99P97+Q5RJZ2+B1WBY8); conditions: at 0.1 µM
Description: Inhibition of isolated rat liver HDAC using substrate containing acetylated lysine side chain assessed as release of fluorophore at 0.1 uM by Fluor de Lys assay

[2] = target: T1, Histone deacetylase (Rattus norvegicus); conditions: at 0.01 µM
Description: Inhibition of isolated rat liver HDAC using substrate containing acetylated lysine side chain assessed as release of fluorophore at 0.01 uM by Fluor de Lys assay

[3] = Antiproliferative activity against human HCT116 cells after 5 days by Alamar Blue assay; format: functional, cell-based; conditions: HCT-116, 120 h

Compound | inhibition [1] | inhibition [2] | IC50 [3]
COc1ccc(CC(=O)Nc2ccc3oc(C(=O)NO)cc3c2)cc1 | 42% | < 20% | 2700 nM
O=C(NCc1ccc2oc(C(=O)NO)cc2c1)c1ccccc1 | 49% | < 20% | 690 nM
Cc1ccc(C(=O)NCc2ccc3cc(C(=O)NO)sc3c2F)s1 | 80% | 41% | 120 nM
O=C(NO)c1cc2ccc(CN(CCO)Cc3ccccc3)c(F)c2s1 | 48% | < 20% | 800 nM
COc1ccc(C(=O)NCc2ccc3cc(C(=O)NO)sc3c2F)cc1 | 78% | 39% | 50 nM
CN(C)c1ccc(C(=O)NCc2ccc3cc(C(=O)NO)sc3c2F)cc1 | 61% | < 20% | 60 nM
CN(C)c1ccc(CC(=O)Nc2ccc3oc(C(=O)NO)cc3c2)cc1 | 34% | < 20% | 
O=C(NCc1ccc2cc(C(=O)NO)sc2c1F)c1ccccc1 | 64% | 24% | 980 nM
O=C(NCc1ccc2cc(C(=O)NO)oc2c1)c1ccco1 | 27% | < 20% | 
Cc1cc(C(=O)NCc2ccc3cc(C(=O)NO)sc3c2F)oc1C | 59% | 21% | 470 nM
COCc1ccc(C(=O)NCc2ccc3cc(C(=O)NO)sc3c2F)o1 | 67% | 23% | 310 nM
COc1cccc(CC(=O)Nc2ccc3oc(C(=O)NO)cc3c2)c1 | 32% | < 20% | 
O=C(NCc1ccc2cc(C(=O)NO)sc2c1F)c1ccco1 | 78% | 39% | 90 nM
COc1ccccc1C(=O)NCc1ccc2cc(C(=O)NO)sc2c1F | 56% | < 20% | 1200 nM
Cc1ncoc1C(=O)NCc1ccc2cc(C(=O)NO)sc2c1F | 61% | 20% | 210 nM
O=C(Cc1ccccc1)Nc1ccc2oc(C(=O)NO)cc2c1 | 41% | < 20% | 1700 nM
O=C(NCc1ccc2oc(C(=O)NO)cc2c1)c1ccco1 | 45% | < 20% | 860 nM
O=C(NO)c1cc2ccc(CN3CCc4ccccc4C3)c(F)c2s1 | 45% | < 20% | 3000 nM
CN(C)CCCC(=O)Nc1ccc2oc(C(=O)NO)cc2c1 | 26% | < 20% | 
O=C(NCc1ccc2cc(C(=O)NO)sc2c1F)c1ccc[nH]1 | 76% | 45% | 300 nM
